Each block holds one compound with its values, some of them ahead of it.
Assay: solvent given as SMILES

Compound: C(=C\c1cnccn1)/c1ccc(N(c2ccccc2)c2ccc(/C=C/c3cnccn3)cc2)cc1
emission maximum (in ClCCl): 569 nm

Compound: CC[N+]1(CC)CN2C(=N1)C(C(=O)O)=Cc1cc(C)c(C)cc12
emission maximum (in O): 466 nm

Compound: CCCCCCCCC1(CCCCCCCC)c2cc(-c3ccc(C#N)cc3)ccc2-c2ccc(-c3ccc(C#N)cc3)cc21
emission maximum (in ClC(Cl)Cl): 385 nm

Compound: CCOC(=O)c1c2c3c(ccc(C)c3c3cc4c(cc13)[Si](C)(C)O[Si]4(C)C)N(C)C2=O
emission maximum (in CC#N): 413 nm

Compound: c1ccc(-c2nc(-c3ccc(-c4nc(-c5ccccc5)c(-c5ccccc5)o4)cc3)oc2-c2ccccc2)cc1
emission maximum (in C1COCCO1): 428 nm

Compound: c1ccc(-c2nc3sc4ccccc4c3s2)cc1
emission maximum (in CS(C)=O): 412 nm

Compound: CN1C(=CC=Cc2nc3nc4ccccc4nc3s2)C(C)(C)c2ccccc21
emission maximum (in CO): 623 nm

Compound: C#Cc1ccc(-c2c3nc(c(-c4ccc(C#C)cc4)c4ccc([nH]4)c(-c4cc(C(C)(C)C)cc(C(C)(C)C)c4)c4cc(c(-c5cc(C(C)(C)C)cc(C(C)(C)C)c5)c5ccc2[nH]5)C=N4)C=C3)cc1
emission maximum (in ClCCl): 744 nm

Compound: CN(C)c1cc2c(cc1F)c(=O)c1cc(F)c(N3CCCCC3)cc1n2C
emission maximum (in CCO): 443 nm

Compound: Cc1ccc(-c2c3nc(c(-c4ccc(C)cc4)c4ccc([nH]4)c(-c4ccc(OC(=O)C(C)c5ccc(Oc6ccccc6)cc5)cc4)c4nc(c(-c5ccc(C)cc5)c5ccc2[nH]5)C=C4)C=C3)cc1 (stereo not given)
emission maximum (in ClCCl): 653 nm

Compound: CN(C)c1ccc(/C=C/C=C/c2nc3ccccc3s2)cc1
emission maximum (in C1COCCO1): 516 nm
emission maximum (in CC#N): 562 nm
emission maximum (in CC(C)=O): 557 nm
emission maximum (in CCCCCC): 478 nm
emission maximum (in CCCCO): 531 nm
emission maximum (in CCCO): 533 nm
emission maximum (in CCO): 560 nm
emission maximum (in CN(C)C=O): 567 nm
emission maximum (in CO): 573 nm
emission maximum (in Cc1ccccc1): 500 nm
emission maximum (in ClC(Cl)(Cl)Cl): 499 nm
emission maximum (in ClC(Cl)Cl): 526 nm
emission maximum (in ClCCl): 533 nm
emission maximum (in OCC(O)CO): 583 nm
emission maximum (in OCCO): 583 nm
emission maximum (in c1ccccc1): 504 nm

Compound: Cc1ccccc1
emission maximum (in C1CCCCC1): 286.62 nm

Compound: O=Cc1nc2ccc(C#Cc3ccc(N(c4ccc(C#Cc5ccc6nc(C=O)sc6c5)cc4)c4ccc(C#Cc5ccc6nc(C=O)sc6c5)cc4)cc3)cc2s1
emission maximum (in Cc1ccccc1): 500 nm

Compound: c1ccc(-c2c3c(nc4ccccc24)-c2cc4c(cc2CC3)-c2nc3ccccc3c(-c3ccccc3)c2CC4)cc1
emission maximum (in ClC(Cl)Cl): 387 nm

Compound: CC(C)(C)c1ccc(C2=C(c3ccc(-n4c5ccc(C(C)(C)C)cc5c5cc(C(C)(C)C)ccc54)cc3)S(=O)(=O)c3c2sc(-c2ccc(-n4c5ccc(C(C)(C)C)cc5c5cc(C(C)(C)C)ccc54)cc2)c3-c2ccc(C(C)(C)C)cc2)cc1
emission maximum (in C1CCOC1): 555 nm

Compound: CN1/C(=C/C=C/C2=[N+](C)c3ccccc3C2(C)C)Sc2ccccc21
emission maximum (in CS(C)=O): 569 nm

Compound: Cc1nc(-c2cc(N)ccc2O)n2c1CCCC2
emission maximum (in ClCCl): 543 nm

Compound: [NH3+]c1ccc2c(c1)Cc1ccccc1-2
emission maximum (in O): 314 nm

Compound: CN(C)c1ccc(C2=Nc3sc4c(F)c(F)c(F)c(F)c4[n+]3[B-](F)(F)O2)cc1
emission maximum (in C1CCOC1): 492 nm
emission maximum (in CC#N): 503 nm
emission maximum (in Cc1ccccc1): 464 nm
emission maximum (in ClCCl): 483 nm

Compound: COc1ccc(N(c2ccc(OC)cc2)c2ccc3ccc4c(B(c5c(C)cc(C)cc5C)c5c(C)cc(C)cc5C)ccc5ccc2c3c54)cc1
emission maximum (in C1CCOC1): 626 nm
emission maximum (in CC(C)=O): 658 nm
emission maximum (in CCCCCC): 534 nm
emission maximum (in Cc1ccccc1): 575 nm
emission maximum (in ClC(Cl)Cl): 601 nm
emission maximum (in ClCCl): 633 nm

Compound: CCC1=C(C)C2=C(C)c3cc(I)cn3[B-](F)(F)[N+]2=C1C
emission maximum (in C1CCCCC1): 532 nm
emission maximum (in CC(C)=O): 532.5 nm
emission maximum (in CCO): 534 nm
emission maximum (in CCOC(C)=O): 531.5 nm
emission maximum (in CO): 533.5 nm
emission maximum (in OCC(F)(F)F): 530.5 nm

Compound: Cn1nc(-c2ccccc2)c2nc3cc(Cl)ccc3nc21
emission maximum (in C1CCCCC1): 487 nm
emission maximum (in C1CCOC1): 519 nm
emission maximum (in CC#N): 540 nm

Compound: CC(C)(C)c1ccccc1N(c1ccccc1)c1ccc(S(=O)(=O)c2ccc(S(=O)(=O)c3ccc(N(c4ccccc4)c4ccccc4C(C)(C)C)cc3)cc2)cc1
emission maximum (in Cc1ccccc1): 444 nm
emission maximum (in c1cc(-n2c3ccccc3c3ccccc32)nc(-n2c3ccccc3c3ccccc32)c1): 465.06 nm

Compound: CC(C)(C)c1cc(/C2=C3\C=CC(=N3)/C(c3ccc(Br)cc3)=c3/cc/c([nH]3)=C(\c3ccc(Br)cc3)C3=N/C(=C(/c4cc(C(C)(C)C)cc(C(C)(C)C)c4)c4cc2c[nH]4)C=C3)cc(C(C)(C)C)c1
emission maximum (in CC(=O)N(C)C): 716 nm

Compound: COc1cc2c(cc1OC)C1=C[C@H](c3ccc(Cl)cc3)C3(C(C#N)=C(C#N)N1CC2)c1ccccc1-c1ccccc13
emission maximum (in ClCCl): 405 nm

Compound: COc1cc(OC)c2c(c1)C(=O)c1ccccc1-2
emission maximum (in C1CCCCC1): 537 nm
emission maximum (in CC#N): 592 nm

Compound: O=C1CC(=O)Nc2cc(C(=O)O)ccc2N1
emission maximum (in CS(C)=O): 407 nm

Compound: N#Cc1cc(/C=C/c2ccc(N(c3ccccc3)c3ccccc3)cc2)ccc1/C=C/c1ccc(/C=C/c2ccc(N(c3ccccc3)c3ccccc3)cc2)cc1C#N
emission maximum (in ClCCl): 614 nm

Compound: CC(C)(C)c1ccc(C2=CC(c3ccccc3)=[N+]3C2=Nc2c(-c4ccc(C(C)(C)C)cc4)cc(-c4ccccc4)n2[B-]3(F)F)cc1
emission maximum (in C1CCOC1): 681 nm
emission maximum (in Cc1ccccc1): 683 nm
emission maximum (in ClC(Cl)Cl): 680 nm

Compound: FC(F)(F)c1ccc(/C=C/c2nc(/C=C/c3ccc(N(c4ccccc4)c4ccccc4)cc3)cc(/C=C/c3ccc(N(c4ccccc4)c4ccccc4)cc3)n2)cc1
emission maximum (in C1CCOC1): 526 nm
emission maximum (in CC#N): 600 nm
emission maximum (in CC(C)=O): 567 nm
emission maximum (in CCCCCCC): 467 nm
emission maximum (in CS(C)=O): 599 nm
emission maximum (in Cc1ccccc1): 486 nm
emission maximum (in ClCCl): 554 nm

Compound: CCCCCCCCCCCCOc1cc2c3cc(OCCCCCCCCCCCC)c(OCCCCCCCCCCCC)cc3c3c(cc(OCCCCCCCCCCCC)c4nc5cc(C#Cc6ccc(CCCCCCCCCC)cc6)c(C#Cc6ccc(CCCCCCCCCC)cc6)cc5nc43)c2cc1OCCCCCCCCCCCC
emission maximum (in ClC(Cl)Cl): 663 nm

Compound: CC1(C)c2ccccc2N(c2ccc(-c3ncc(C#N)cn3)cc2)c2ccccc21
emission maximum (in Cc1ccccc1): 543 nm
emission maximum (in N#Cc1ccc2c(c1)c1ccccc1n2-c1cccc(-n2c3ccccc3c3ccccc32)c1): 541 nm

Compound: CC(=O)c1ccc(NC(=O)c2ccc(N(C)C)cc2)cc1
emission maximum (in C1CCCCC1): 345 nm
emission maximum (in C1CCOC1): 468 nm
emission maximum (in CC#N): 550 nm
emission maximum (in CCOCC): 470 nm

Compound: Cc1ccc(/C2=c3\cc/c(o3)=C(\c3ccc(C)cc3)c3ccc([nH]3)-c3ccc4n3[P-](=O)(=O)[N+]3=C(C=CC3=C4c3cccs3)c3ccc2[nH]3)cc1
emission maximum (in ClC(Cl)Cl): 736 nm

Compound: CSC1=C2C=C(c3cc4n(c3)[B-](F)(F)[N+]3=CC=CC3=C4c3c(C)cc(C)cc3C)C(C)=[N+]2[B-](F)(F)n2c(C)ccc21
emission maximum (in C1CCCCC1): 652 nm
emission maximum (in CC#N): 740 nm
emission maximum (in CC(C)=O): 694 nm
emission maximum (in CCOC(C)=O): 664 nm
emission maximum (in Cc1ccccc1): 663 nm

Compound: Fc1cc(-c2nc(-c3ccccc3)nc(-c3ccccc3)n2)ccc1-n1c2ccccc2c2c3c(ccc21)C1(c2ccccc2-c2ccccc21)c1ccccc1-3
emission maximum (in C1CCOC1): 487.96 nm
emission maximum (in C1COCCO1): 461.11 nm
emission maximum (in CN(C)C=O): 533.56 nm
emission maximum (in Cc1ccccc1): 448 nm
emission maximum (in ClC(Cl)Cl): 500.23 nm

Next, values leading:

emission maximum (in ClCCl): 766 nm
Compound: CCN(CC)c1ccc2c(-c3ccccc3C(=O)O)c3c([o+]c2c1)/C(=C/c1ccc(N(C)C)s1)CCC3

emission maximum (in ClC(Cl)Cl): 673 nm
Compound: F[B-]1(F)n2c(cc3sc4ccccc4c32)C(c2ccc(I)cc2)=C2C=c3sc4ccccc4c3=[N+]21

emission maximum (in CCO): 643 nm
emission maximum (in O): 651 nm
Compound: CC/[NH+]=c1\cc2oc3cc(NCCO)c4ccccc4c3nc-2cc1C

emission maximum (in C1CCCCC1): 427 nm
emission maximum (in CC#N): 445 nm
emission maximum (in CO): 440 nm
emission maximum (in ClCCl): 443 nm
Compound: COc1c2ccccc2c(OC)c2c1c1c(C)ccc(OC)c1n2C

emission maximum (in ClCCl): 495 nm
Compound: CCN(CC)c1ccc2cc(-c3nc4cc(C(=O)Nc5cccc(C)c5)ccc4o3)c(=O)oc2c1

emission maximum (in ClC(Cl)Cl): 397 nm
Compound: CC(C)(C)c1cccc2c1oc1nc3oc4cc(-n5c6ccccc6c6ccccc65)ccc4c3cc12

emission maximum (in CC#N): 502 nm
emission maximum (in CN(C)C=O): 573 nm
emission maximum (in ClCCl): 535 nm
Compound: CCN(CC)c1ccc(/C=N/c2ccccc2/N=C/c2ccc(N(CC)CC)cc2O)c(O)c1

emission maximum (in ClC(Cl)Cl): 521.92 nm
Compound: CC1=CC(C)=[N+]2C1=C(c1ccc(I)cc1)c1c(C)cc(C)n1[B-]2(OCc1ccccc1)OCc1ccccc1

emission maximum (in ClC(Cl)Cl): 383 nm
Compound: CC(C)(C)NC(=O)c1c([Si](C)(C)C)cc2ccc3cccc4ccc1c2c34

emission maximum (in ClCCl): 384 nm
Compound: c1ccc(-n2c3ccccc3c3cc(-c4cccc(-n5c6cccnc6c6c7sc8ccccc8c7ccc65)c4)ccc32)cc1

emission maximum (in CCO): 576 nm
emission maximum (in ClCCl): 573 nm
Compound: Cc1ccccc1-c1c2ccc(=[N+]3CCCC3)cc-2oc2cc(N3CCCC3)ccc12

emission maximum (in CCO): 417 nm
Compound: COC(=O)CNC(=O)CCNc1cccc2ccccc12

emission maximum (in C1CCOC1): 447 nm
Compound: CC(C)(C)c1ccc(C2=C(c3ccc(C(C)(C)C)cc3)[Si](c3ccccc3)(c3ccccc3)c3ccccc32)cc1

emission maximum (in ClCCl): 458 nm
Compound: CC(=O)c1ccc(C#Cc2ccc(-c3cc(N(C)C)c4ccccc4c3)cc2)cc1

emission maximum (in CC#N): 579 nm
Compound: CC1=C(C#Cc2ccccc2)C2=Cc3c(C#Cc4ccccc4)c(C)c(C)n3[B-](F)(F)[N+]2=C1C

emission maximum (in ClCCl): 388 nm
Compound: CC(C)(C)NC(=O)c1cccc2ccc3c4ccc(F)cc4c4cc(F)ccc4c3c12

emission maximum (in CO): 613 nm
Compound: Cc1ccc(C2=C3C=CC(Nc4ccccc4)=[N+]3[B-](F)(F)n3c(Nc4ccccc4)ccc32)cc1

emission maximum (in ClC(Cl)Cl): 535 nm
Compound: Cc1ccc(C(=O)/N=c2\oc3cccc4c5c(-c6ccccc6)oc6cccc(c(c2-c2ccccc2)c34)c65)cc1

emission maximum (in ClC(Cl)Cl): 434 nm
Compound: COc1ccc2cc(-c3ccc(-c4cc5ccc(OC)cc5oc4=O)cc3)c(=O)oc2c1

emission maximum (in ClCCl): 649 nm
Compound: CC(C)[Si](C#Cc1c2cc3ccccc3cc2c(C#C[Si](C(C)C)(C(C)C)C(C)C)c2cc3ccccc3cc12)(C(C)C)C(C)C

Reference: the Deep4Chem optical property database
